Experimental data published in a melting point compilation (Tetko et al.; mined from patent text by program, amines drawn as free bases though some values may be those of a salt).

First: CC(C)C[C@H](NC(=O)[C@H](Cc1ccccc1)NC(=O)OCc1ccccc1)C(=O)N[C@@H](C(C)C)[C@@H](O)c1c(-c2ccccc2)c1=O
Second: CN(CCc1ccccc1)C(=O)Cn1cc(CCC(=O)O)c2cc(OCc3ccccc3)ccc21
The melting point of the first is higher: 128 to 130 °C for the first, 122 to 125 °C for the second.

First: O=c1cc(O)n(-c2cccc(C(F)(F)F)c2)nc1-c1ccnn1-c1ccccc1
Second: O=C(O)Cc1ccc(OCCNC(=O)C2Cc3ccccc3N2S(=O)(=O)c2ccc(-c3cccc(C(F)(F)F)c3)c(F)c2)cc1 (configuration not stated)
The melting point of the first is higher: 241 to 243 °C for the first, 82 °C for the second.

Compared with `CC(C)NC(=O)c1cc(-n2c(=O)cc(C(F)(F)F)n(C)c2=O)c(F)cc1Cl`, `CCOC(=O)C1=C(C)Nc2ccnc(OC(C)C)c2C1c1cccc(C(F)(F)F)c1Cl` (configuration not stated) is higher in melting point: 146 to 149 °C for the first, 173 to 175 °C for the second.

First: COc1cccc2c1OC(CN1CC=C(c3c[nH]c4ccc(C#N)cc34)CC1)CO2 (configuration not stated)
Second: O=S1(=O)N(CCCN2CC=C(c3c[nH]c4ccc(F)cc34)CC2)c2cccc3c2N1CCC3
The melting point of the first is higher: 235 to 238 °C for the first, 178 °C for the second.

First: Cc1nc(N(C)C)ccc1N1CCCn2c1nc1c(Cl)ccc(C(OC(F)F)C(F)(F)F)c12 (configuration not stated)
Second: COc1cc(N2CCOCC2)ccc1Nc1nc(Nc2ccc3c(c2)CCCC(=O)N3C(C)C)ncc1Cl
The melting point of the first is higher: 233 to 235 °C for the first, 153 to 154 °C for the second.

First: CC(=O)Oc1ccc([C@@H]2O[C@H]2CO)cc1
Second: COC(=O)[C@@H]1O[C@H]1c1ccc(OC)cc1
The melting point of the first is lower: 59 to 61 °C for the first, 86 to 87 °C for the second.

First: Cc1cc(C#Cc2cnn3c(C(F)(F)F)cc(-c4ccc(C(F)(F)F)cc4)nc23)ccn1
Second: Cc1c(C(F)(F)C(F)(F)F)ncn(-c2c(Cl)cc(C(F)(F)F)cc2C#N)c1=O
The melting point of the first is higher: 206 °C for the first, 158 to 160 °C for the second.

Compared with `COc1ccc(-c2cc(=Nc3c(C)cc(C)cc3C)n(C)c(SC)n2)cc1OC`, `COc1cc2ncnc(N3CCc4c(Br)ccc(C)c43)c2cc1OC` is higher in melting point: 172 to 173 °C for the first, 223 to 225 °C for the second.

First: O=C(O)c1nc(-c2ccc(-c3ccccc3)cc2)nc2ccccc12
Second: Cc1ccc(-c2ccc(C(=O)Nc3ccc4nc(CN5CCCCC5)ccc4c3)cc2)cc1
The melting point of the first is lower: 175 to 176 °C for the first, 198 to 200 °C for the second.

Compared with `NS(=O)(=O)c1cc(Br)cc2c1OS(=O)(=O)C=C2`, `NS(=O)(=O)c1cc(S(N)(=O)=O)c(-c2ccccc2)cc1F` is lower in melting point: 224 to 228 °C for the first, 174 to 175 °C for the second.

First: CCOC(=O)C(C#N)C1NC(=O)c2sccc2-n2cccc21 (configuration not stated)
Second: CCOC(=O)COc1cccc2c1CC(Br)C2=O (configuration not stated)
The melting point of the first is higher: 195 °C for the first, 60 to 63 °C for the second.

First: CC(C)(C)OC(=O)N[C@@H](CCCCN=C=O)C(=O)N1CC(F)(F)C(F)(F)C1
Second: CC(C)C[C@@H](C(=O)O)N(C)C(=O)OC(C)(C)C
The melting point of the first is higher: 68 to 70 °C for the first, 53 to 55 °C for the second.

First: CC(C(N)=O)c1ccc(N)cc1 (configuration not stated)
Second: CC(C)(C)c1nnc(Oc2ccc(N)cc2)o1
The melting point of the first is higher: 120 to 122 °C for the first, 80 to 81 °C for the second.

First: Cc1oc(-c2ccco2)nc1COc1ccc(Cn2cc(CC(=O)O)c(-c3ccccc3)n2)cn1
Second: Cc1oc(-c2ccco2)nc1CCc1ccc(CCCC2OC(=O)NC2=O)cc1 (configuration not stated)
The melting point of the first is higher: 135 to 136 °C for the first, 123 to 124 °C for the second.

First: CC12CC(=CO)C(=O)C=C1CCC1C2CCC2(C)C1C=CC2(C)O (configuration not stated)
Second: CC(=O)OC(CCC(C)(C)C)C(C)C1CCC2C3CC=C4CC(O)CCC4(C)C3CCC12C (configuration not stated)
The melting point of the first is lower: 176 °C for the first, 210 to 212 °C for the second.

First: CC1c2cc(Cl)ccc2-c2ccc(Cl)cc21
Second: O=C1c2ccccc2C(=O)N1C[C@H]1COc2cc(Cl)ccc2O1
The melting point of the first is lower: 110 to 112 °C for the first, 126 to 127 °C for the second.

Compared with `Clc1ccc2c(c1)CCn1ccnc1C2=C1CCNCC1`, `c1ccc2c(c1)CCc1ccc(-c3nnn[nH]3)cc1S2` is higher in melting point: 197 °C for the first, 205 °C for the second.

First: CC(C)(C)OCCOCCn1cc(C(=O)NCc2ccc(Cl)cc2)c(=O)c2cc(CN3CCOCC3)ccc21
Second: CCOP(=O)(Cc1ccc(NC(=O)CCc2cnoc2-c2ccc(Cl)cc2)cc1)OCC
The melting point of the first is lower: 130 to 132 °C for the first, 138 to 139 °C for the second.

First: OC1CCCCCC/C1=C\Br (configuration not stated)
Second: c1ccc2c(c1)CCc1ccccc1C2CCN1CCCC1
The melting point of the first is higher: 144 to 145 °C for the first, 51 to 53 °C for the second.

First: COc1cccc(CCC(=O)O)c1C
Second: COC(=O)c1cc(C(C)=O)ccc1OC
The melting point of the first is higher: 143 to 147 °C for the first, 72 to 74 °C for the second.

First: Cc1ncc(CN2CC=C(CCc3ccccc3)CC2)c(N)n1
Second: Cc1nc(N2CCN(CCCc3ccccc3)C2=O)sc1C(=O)O
The melting point of the first is lower: 152 to 154 °C for the first, 218 to 221 °C for the second.

Compared with `CSc1sc(-c2ncn(C)n2)c2c1C(=O)CC(C)(C)C2`, `COc1cc(C(C)C)ccc1C1(O)C(=O)c2cccc(N)c2C1=O` (configuration not stated) is higher in melting point: 146 to 148 °C for the first, 219 to 220 °C for the second.

First: CCOC(=O)CNC(=O)c1cc(C(=O)c2ccccc2Cl)c(N)s1
Second: CCOC(=O)C(Cc1c[nH]c2c(Cl)cccc12)(NC=O)C(=O)OCC
The melting point of the first is higher: 216 to 218 °C for the first, 159 to 162 °C for the second.

Compared with `O=CN(O)C(CO)CS(=O)(=O)c1ccccc1Sc1ccc(Cl)cc1` (configuration not stated), `O=C(NCCO)c1ccc(NS(=O)(=O)c2ccc(F)cc2)cn1` is lower in melting point: 148 to 150 °C for the first, 144 to 146 °C for the second.

Compared with `c1cc(-c2cn([C@H]3CN4CCC3CC4)nn2)ccn1`, `Cc1cccnc1COc1nn2c(-c3ccccc3)nnc2cc1N1CCCCC1` is higher in melting point: 150 °C for the first, 160 °C for the second.

First: N#Cc1ccc(-c2ccc(S(=O)(=O)NCc3ccncc3)cc2)cc1
Second: Cc1ccc(S(=O)(=O)NCC(=O)NCc2ccc(C(c3cc(F)ccc3F)S(=O)(=O)c3ccc(Cl)cc3)nc2)cc1 (configuration not stated)
The melting point of the first is lower: 198 to 202 °C for the first, 217 to 218 °C for the second.

First: CC(C)n1c(=O)[nH]oc1=O
Second: CC(C)CN1CCC2(CC1)CSC1=C(O2)c2ccccc2C(=O)C1=O
The melting point of the first is lower: 150 °C for the first, 158 to 161 °C for the second.

Compared with `N#CNC(=S)Nc1ccc(C#N)cc1`, `N#Cc1ccc(-c2ncc(Br)cn2)cc1` is lower in melting point: over 250 °C for the first, 222 °C for the second.

Compared with `COC(=O)/C=C/c1ccc(/C=C/c2csc(NC(C)=O)n2)s1`, `COc1ccc(C(=C/C=C/C(=O)Nc2cccc3cnccc23)c2ccc(OC)cc2)cc1` is lower in melting point: 200 to 202 °C for the first, 197 to 199 °C for the second.

Compared with `O=C(c1ccccc1)C(O)Cc1cccc(O)c1` (configuration not stated), `NC(=O)N(O)CCNC(=O)c1cccc(C(=O)c2ccccc2)c1` is higher in melting point: 118 to 119 °C for the first, 168 to 170 °C for the second.

First: Cc1cc(CCCCCOc2cc(Cl)c(-c3nnco3)c(Cl)c2)on1
Second: CCCCCCOc1ccc(C(=O)Cl)cc1
The melting point of the first is lower: 73 to 74 °C for the first, 90 to 93 °C for the second.

First: CN(Cc1ccc(Cl)cc1)C(=O)CC12CC3CC(CC(C3)C1)C2
Second: Cc1cc(OC23CC4CC(CC(C4)C2)C3)ccc1N
The melting point of the first is lower: 75 to 76 °C for the first, 143 to 145 °C for the second.

Compared with `O=C(O)C=Cc1cccc(-c2cccc([N+](=O)[O-])c2)c1`, `O=[N+]([O-])c1cccc(-c2cc(Cc3ccc(F)cc3)cc(/C=N/O)c2O)c1` is lower in melting point: 247 to 248 °C for the first, 157 to 159 °C for the second.

First: CC1(C)COC(C(C)(C)Oc2ccc(Cl)cc2)=N1
Second: CC(C)(C)OC(=O)Nc1cc(N)cc(Cl)c1
The melting point of the first is lower: 59 to 61 °C for the first, 85 to 87 °C for the second.

Compared with `Cc1cc(N)c([N+](=O)[O-])c(C)c1N`, `Cc1cc(C)c(NCCC(N)=S)cc1C` is lower in melting point: 124 °C for the first, 110 to 111 °C for the second.

First: CC1=CC(=O)CC(c2cccc(Cl)c2)N1C (configuration not stated)
Second: CCn1nc(-c2ccccc2)c(C(C)=O)c(Nc2cccc(Cl)c2)c1=O
The melting point of the first is lower: 82 °C for the first, 189 to 191 °C for the second.

Compared with `Cc1cccc(OCC(F)(F)F)c1NC(=O)CCl`, `CCC(C)c1nn(-c2ccc(C(F)(F)F)cn2)cc1CCCOc1c(CC(=O)O)cccc1OC` (configuration not stated) is lower in melting point: 128 to 129 °C for the first, 117 to 118 °C for the second.

First: CC(C)(C)c1cc(-c2nc3ncccc3o2)cc(C(C)(C)C)c1
Second: CC(C)(C)C1=CC(C(F)(F)F)=CCC1(O)C(C)(C)C (configuration not stated)
The melting point of the first is higher: 154 to 156 °C for the first, 78 to 80 °C for the second.

First: CCCCOC(=O)c1ccc2c(c1)C(=O)NC(C(Cl)(Cl)Cl)O2 (configuration not stated)
Second: CCOC1=CC(=O)N([C@@H]2c3cc(C#N)ccc3OC(C)(C)[C@H]2OC(C)=O)C1 (relative stereo)
The melting point of the first is lower: 134 to 136 °C for the first, 156 °C for the second.

First: N#Cc1ccc(O)c(I)c1
Second: COc1cccc2c1CCC(C#N)C2O (configuration not stated)
The melting point of the first is higher: 144 to 146 °C for the first, 96 to 98 °C for the second.

First: COc1ccc(Nc2nc3ccccc3c(=O)[nH]2)c(C)c1
Second: COC(=O)c1cc(-n2cnn(Cc3ccc(F)cc3)c2=O)nn1Cc1ccc(OC)cc1
The melting point of the first is higher: 270 to 272 °C for the first, 139 to 140 °C for the second.

Compared with `CCCN(CCC)C(=O)COC1Cc2cccc(OCC(O)CNC(C)(C)C)c2CC1OCC(=O)N(CCC)CCC` (configuration not stated), `CCC(C)(CC)c1ccc(NC(=O)c2c(OC)cccc2OC)nn1` is higher in melting point: 124 to 134 °C for the first, 145 to 147 °C for the second.

First: OCc1ccc(/C=C/c2ccncc2)nc1
Second: Clc1ccc(OCc2ccccc2)c(C=Cc2ccccn2)c1
The melting point of the first is higher: over 199 °C for the first, 105 to 106 °C for the second.

First: O=C(O)c1cn(C2CC2)c2c(F)c(N3CCC3)c(F)cc2c1=O
Second: C[C@@H](n1cnc2c(Br)cc(Br)cc2c1=O)[C@](O)(Cn1cncn1)c1ccc(F)cc1F
The melting point of the first is higher: 289 to 293 °C for the first, 134 to 135 °C for the second.

First: COc1cc(OCc2ccccn2)ccc1/C=C/c1cc(/C=C/c2c[nH]c3ncccc23)n[nH]1
Second: CON=Cc1cc(=O)c(OCc2ccccc2)c(C(=O)c2ccc(Cc3ccc(F)cc3)o2)o1
The melting point of the first is higher: 219 to 223 °C for the first, 116 to 117 °C for the second.

First: CSC(=NNCCCCc1ncc(Br)cc1C)NC#N
Second: NS(=O)(=O)CCCCCSc1ccc2nccn2n1
The melting point of the first is higher: 127 to 128 °C for the first, 120 to 121 °C for the second.

First: O=C1c2ccccc2C(=O)N1Cc1cc2cc(Cl)cc(Br)c2o1
Second: CC(=O)OCCC1CCc2c(C3=C(c4cn(C)c5ccccc45)C(=O)OC3=O)c3ccccc3n2C1 (configuration not stated)
The melting point of the first is higher: 194 to 198 °C for the first, 182 to 184 °C for the second.

First: O=C1Nc2ccc(F)cc2C(CCc2ccccc2)(C(F)(F)F)N1 (racemic)
Second: O=[N+]([O-])C=Cc1cn(-c2ccccc2)c2ccccc12
The melting point of the first is lower: 98 °C for the first, 154 to 155 °C for the second.

First: O=C(CC1CCOCC1)N[C@H]1CC[C@H](CCN2CCN(c3nccc4ccoc34)CC2)CC1
Second: O=C(c1ccccc1)N1CC(OCc2ccccc2)C(OCc2ccccc2)C(OCc2ccccc2)C1CO (configuration not stated)
The melting point of the first is higher: 213 °C for the first, 104 to 106 °C for the second.

First: CCCC(=O)NN(C(=O)C(=O)NN)C(=O)c1ccccc1
Second: Cc1ccc(NC(=O)NN(C(=O)c2ccccc2)C(C)(C)C)cc1
The melting point of the first is higher: 254 °C for the first, 208 to 210 °C for the second.

Compared with `CC(C)(C)c1ccc(C(C)(C)C(=O)Oc2ccc(SCCCC(=O)O)cc2)cc1`, `CN(CCCN)CC(O)C(O)C(O)C(O)CO` (configuration not stated) is higher in melting point: 86 to 87 °C for the first, 106 °C for the second.
